Measurements reported in ChEMBL document CHEMBL1201862, “PubChem BioAssay data set” (2004).
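Cells were grown in 96-well plates and exposed to each compound for 48 hours at five concentrations; endpoints were interpolated linearly between bracketing concentrations, or set to the highest concentration if not reached. GI50 marks 50% less growth.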 Calls of active or inactive are those of the source. No stated cut-off is given here; in the data, active = GI50 up to about 1.1 µM and inactive = higher.

What was measured:
Experiment in all cases: DTP human tumour cell line panel, 48 h
[1] = tested on: MDA-MB-231
[2] = tested on: MCF7
[3] = tested on: A498
[4] = tested on: Malme-3M
[5] = tested on: TK-10
[6] = tested on: SW-620
[7] = tested on: EKVX
[8] = tested on: U-251
[9] = tested on: SR
[10] = tested on: UACC-257
[11] = tested on: PC-3
[12] = tested on: SNB-75
[13] = tested on: SK-MEL-28
[14] = tested on: HCT-15
[15] = tested on: MOLT-4
[16] = tested on: HCT-116
[17] = tested on: NCI-H226
[18] = tested on: OVCAR-4
[19] = tested on: COLO 205
[20] = tested on: SK-MEL-5
[21] = tested on: SK-OV-3
[22] = tested on: CAKI-1
[23] = tested on: RXF 393
[24] = tested on: RPMI-8226
[25] = tested on: MDA-MB-435
[26] = tested on: HOP-62
[27] = tested on: K562
[28] = tested on: UO-31
[29] = tested on: Hs-578T
[30] = tested on: UACC-62
[31] = tested on: HT-29
[32] = tested on: SNB-19
[33] = tested on: OVCAR-8
[34] = tested on: SF-268
[35] = tested on: CCRF-CEM
[36] = tested on: NCI-H460
[37] = tested on: SF-539
[38] = tested on: OVCAR-3
[39] = tested on: HCC 2998
[40] = tested on: NCI-H23
[41] = tested on: MDA-N
[42] = tested on: NCI-H522
[43] = tested on: A549
[44] = tested on: IGROV-1
[45] = tested on: HOP-92
[46] = tested on: HL-60
[47] = tested on: T47D
[48] = tested on: KM12
[49] = tested on: SF-295
[50] = tested on: SK-MEL-2
[51] = tested on: LOX IMVI
[52] = tested on: NCI/ADR-RES
[53] = tested on: 786-0
[54] = tested on: OVCAR-5
[55] = tested on: ACHN
[56] = tested on: SN12C
[57] = tested on: M14
[58] = tested on: BT-549
[59] = tested on: DU-145

## Cc1cc(C)c2c(=O)n(CC(O)CN3CCN(c4ncccn4)CC3)sc2n1 (centres undefined)
[1]
  GI50: 17.5 µM (inactive)
[2]
  GI50: 17.9 µM (inactive)
[3]
  GI50: 17.4 µM (inactive)
[4]
  GI50: 20.1 µM (inactive)
[5]
  GI50: 18.2 µM (inactive)
[6]
  GI50: 19.5 µM (inactive)
[7]
  GI50: 16 µM (inactive)
[8]
  GI50: 17.8 µM (inactive)
[9]
  GI50: 4.79 µM (inactive)
[10]
  GI50: 16.7 µM (inactive)
[11]
  GI50: 18.7 µM (inactive)
[12]
  GI50: 15.1 µM (inactive)
[13]
  GI50: 17 µM (inactive)
[14]
  GI50: 18.8 µM
[15]
  GI50: 4 µM (inactive)
[16]
  GI50: 15.6 µM (inactive)
[17]
  GI50: 96.8 µM (inactive)
[18]
  GI50: 18.6 µM (inactive)
[19]
  GI50: 19 µM (inactive)
[20]
  GI50: 20.5 µM (inactive)
[21]
  GI50: 18.7 µM (inactive)
[22]
  GI50: 20 µM (inactive)
[23]
  GI50: 17.5 µM (inactive)
[24]
  GI50: 4.71 µM (inactive)
[25]
  GI50: 16.6 µM (inactive)
[26]
  GI50: 20.3 µM (inactive)
[27]
  GI50: 22.3 µM (inactive)
[28]
  GI50: 16.4 µM (inactive)
[29]
  GI50: 21.4 µM (inactive)
[30]
  GI50: 17.8 µM (inactive)
[31]
  GI50: 16.1 µM (inactive)
[32]
  GI50: 64.3 µM (inactive)
[33]
  GI50: 19.2 µM (inactive)
[34]
  GI50: 18.6 µM (inactive)
[35]
  GI50: 5.79 µM (inactive)
[36]
  GI50: 17.5 µM (inactive)
[37]
  GI50: 17.8 µM (inactive)
[38]
  GI50: 19.4 µM (inactive)
[39]
  GI50: 18.9 µM (inactive)
[40]
  GI50: 17.7 µM (inactive)
[41]
  GI50: 16 µM (inactive)
[42]
  GI50: 13 µM (inactive)
[43]
  GI50: 17.5 µM (inactive)
[44]
  GI50: 29.4 µM (inactive)
[45]
  GI50: 29 µM (inactive)
[46]
  GI50: 16.6 µM (inactive)
[47]
  GI50: 23.4 µM (inactive)
[48]
  GI50: 20.8 µM (inactive)
[49]
  GI50: > 100 µM (inactive)
[50]
  GI50: 18.7 µM (inactive)
[51]
  GI50: 17.1 µM (inactive)
[52]
  GI50: 31 µM (inactive)
[53]
  GI50: 14.5 µM (inactive)
[54]
  GI50: 16.5 µM (inactive)
[55]
  GI50: 18.4 µM (inactive)
[56]
  GI50: 17.8 µM (inactive)
[57]
  GI50: 15.7 µM (inactive)
[58]
  GI50: 18.4 µM (inactive)
[59]
  GI50: 16.6 µM (inactive)
